PMC3104491 (mBio, 2011)
Values belong to the molecule of their own block, whether it stands above or below them.

Key:
[1] = target: T1, CTL843 (SAMHT, SAM/SAH transporter) (Chlamydia trachomatis, UniProt B0B8F4); experiment: inhibition of […]SAM uptake in whole E. coli cells expressing CTL843; format: cell-based
T1 sequence (B0B8F4 1-327): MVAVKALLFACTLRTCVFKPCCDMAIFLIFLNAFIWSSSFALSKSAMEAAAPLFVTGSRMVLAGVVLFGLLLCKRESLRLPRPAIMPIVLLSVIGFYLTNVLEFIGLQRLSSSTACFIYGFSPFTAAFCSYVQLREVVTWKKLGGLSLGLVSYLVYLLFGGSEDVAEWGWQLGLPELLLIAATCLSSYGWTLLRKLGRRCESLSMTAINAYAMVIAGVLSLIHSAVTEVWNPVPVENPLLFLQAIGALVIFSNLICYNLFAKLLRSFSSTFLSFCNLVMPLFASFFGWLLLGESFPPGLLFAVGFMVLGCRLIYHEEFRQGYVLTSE

[2] = substrate: C[S@@+](CC[C@H](N)C(=O)O)C[C@H]1O[C@@H](n2cnc3c(N)ncnc32)[C@H](O)[C@@H]1O; experiment: cells, lysate or membranes

Ki [1]: 4.12 µM
Molecule: Nc1ncnc2c1ncn2[C@@H]1O[C@H](CSCC[C@H](N)C(=O)O)[C@@H](O)[C@H]1O [SAH, S-Adenosyl-L-homocysteine]

B1: CTL843 (SAMHT, SAM/SAH transporter) (Chlamydia trachomatis L2/434/Bu) (protein)
chain: T1 sequence (B0B8F4 1-327)
Km [2]: 5.88 ± 0.11 µM
